The text below walks through data of US20260240826A1, “COMPOSITIONS FOR PD-L1 INHIBITION AND METHODS OF USE THEREOF” (ARIZONA BOARD OF REGENTS ON BEHALF OF THE UNIVERSITY OF …, priority 2023, published 2026).

“Also recorded” adds a separate entry of the source.

For data set [1] the following is noted: cited from earlier work.
The test system of data set [2] is PD-L1. Nature of the data set: SSL-induced PD-L1 protein in primary epidermal keratinocytes (HEK), immunoblot. To be noted: human primary keratinocytes (HEK cells). The format is cell-based. The procedure:
(§1) For SSL treatment, UVA-340 bulbs (Q-Lab Corporation) were used. Before exposure, cells were washed with 1×PBS and then incubated in 4 mL PBS (with 0.01% MgCl2 and 0.01% CaCl2) during irradiation. Cells were exposed to 40 kJ/m2 UVA/2.68 kJ/m2 UVB, then rinsed once more with PBS prior to being placed back into DMEM with 1% FBS+penicillin/streptomycin and vehicle or BMS-202 (post-treatment) and incubated until harvest 24 hr later. Control cells underwent identical processing, except were held in the biosafety cabinet without UV exposure.
Adult human epithelial keratinocytes (HEKs) were purchased from Thermo Scientific and maintained in EpiLife media on collagen-coated plates as per the vendor's instructions. Cells were treated with BMS-202 and SSL as described for HaCaT cells.
(§2) Cells were lysed in RIPA containing 1×HALT protease+phosphatase inhibitor cocktail (ThermoFisher Scientific) and 100 mM PMSF and protein concentrations were assessed using BCA assay (Bio-Rad). Mouse epidermal protein lysates for immunoblot analysis were derived from scraped frozen SKH-1 skins as described previously (Blohm-Mangone et al., 2018). Twenty μg of protein/lane were loaded onto 10% gels for electrophoresis/immunoblotting using established protocols. […]

The subject of data set [3] is PD-L1. Nature of the data set: PD-L1 mRNA in SKH-1 mouse skin by RT-qPCR. The format is in vivo. The note with it: topical 8 mM; 24 hr after SSL. As to the method: (§3) UVB exposure was performed on AP-1 luciferase reporter mice on the SKH-1 genetic background at a dose of 2.75 kJ/m2 using FS40 bulbs (Q-Lab Corporation) as described before with the modification that mice were imaged 24 hr post UVB exposure using whole body bioluminescence instead of 48 hr post UVB using ear punches. SSL irradiation of SKH-1 mice (Charles River Laboratories, strain code 477) at a dose of 90 kJ/m2 UVA/6 kJ/m2 UVB was performed using UVA-340 bulbs (Q-Lab Corporation) as described before.
(§4) Total RNA was isolated from SSL-treated mouse skin using the Qiagen RNeasy Mini Kit (Qiagen) according to the manufacturer's protocol. RNA integrity was checked by the RNA 6000 Nano chip kit using Agilent 2100 Bioanalyzer (Agilent Technologies). […] Then, 10 ng of cDNA was used for amplification of target genes by quantitative PCR using the following conditions: 95° C. for 10 min followed by 95° C. for 15 sec and 60° C. for 1 min for a total of 40 cycles performed in the ABI7500 Real-Time PCR System (Applied Biosystems). […] After amplification plots were generated, the Ct values (cycle number at which fluorescence reaches threshold) were recorded and quantified using the comparative (ΔΔCt) Ct method as described in the ABI Prism 7500 sequence detection system user guide. Statistical significance was calculated employing the Student's two-tailed t-test.

Data set [4] has as its system PD-L1. Nature of the data set: SSL-induced PD-L1 protein in SKH-1 mouse epidermis, immunoblot. The note with it: topical 8 mM; 24 hr post SSL. The format is in vivo. As to the method:
as §3
as §2, with “protocols. Human cell lysate blots were probed with Cell Signaling PD-L1 antibody #13684, and mouse epidermal lysate blots were probed with Invitrogen PD-L1 antibody #PA5-20343. Beta-actin (Cell Signaling #4970) was used as a loading control. An anti-rabbit secondary antibody (Cell Signaling #7074) was used for all blots using standard chemiluminescent protocols (Thermo Scientific Pico ECL #34577).” for “protocols.”
(Immunoblotting shows a protein as a band on a membrane.)

The subject of data set [5] is PD-L1. The experiment in a line: SSL-induced PD-L1 expression in HaCaT keratinocytes (mRNA, immunoblot). The note with it: 24 hr after SSL. The format is cell-based, human. As to the method: Human HaCaT immortalized keratinocytes were maintained in DMEM with 10% FBS and 1× penicillin/streptomycin. Cells were authenticated using STR profiling and tested for mycoplasma regularly. Cells were seeded onto […] at a density of ~200 k/dish and grown for 3 days. Prior to treatment, cells were serum starved overnight to enhance the UV responsiveness of signaling. Cells were ~80% confluent at the time of treatment. BMS-202 (10 μM) in DMSO was added to the media 1 hr prior to SSL (pretreatment).
as §1
Cells were lysed in RIPA containing 1×HALT protease+phosphatase inhibitor cocktail (ThermoFisher Scientific) and 100 mM PMSF and protein concentrations were assessed using BCA assay (Bio-Rad). Mouse epidermal protein lysates for immunoblot analysis were derived from scraped frozen SKH-1 skins as described previously (Blohm-Mangone et al., 2018). […]

The test system of data set [6] is AP-1 luciferase reporter HaCaT cells. Nature of the data set: AP-1 reporter luciferase assay in HaCaT keratinocytes. The format is cell-based, human. To be noted: harvest 12 hr after UVB. The procedure:
HaCaT cells stably transfected with the TRE-driven luciferase plasmid (“AP-1 luciferase” cells) were seeded in 6-well plates, grown to 70% confluence and serum starved overnight to reduce background signaling. Cells were pretreated with BMS-202 or vehicle (DMSO) for 1 hr, then washed twice with PBS prior to exposure to […]. Cells were then washed once more with PBS before being placed into fresh starvation media with vehicle or BMS-202 until harvest 12 hr later. Cells were lysed in Promega's Cell Culture Lysis Buffer (1×), and a total of 10 μg protein per sample replicate was assayed for luciferase activity according to the manufacturer's instructions for the Luciferase Assay System (Promega) using a TD 20/20 luminometer (Turner Designs). Experimental triplicates were averaged and the means from each independent experiment were analyzed by Student's t-test for statistical significance. Results are representative of three independent experiments.

Data set [7] has as its system Il1β, Il6, Il10, Tnfα, Ptgs2, Tlr4 expression in SKH-1 mouse skin. The experiment in a line: RT-qPCR of SSL-induced inflammatory genes in SKH-1 mouse skin. To be noted: 8 mM BMS-202+SSL vs vehicle+SSL; 24 hr. The format is in vivo. As to the method: as §3, §4
Background: Quantitative PCR measures a nucleic acid by following its amplification.

Consider `COc1nc(OCc2cccc(-c3ccccc3)c2C)ccc1CNCCNC(C)=O` [BMS-202], for which the “systemic availability upon topical application” value in data set [1] is recorded as “minimal systemic availability”. Besides, in data set [2], the “SSL-induced PD-L1 protein upregulation (immunoblot)” value was “reproducible”. In addition, the “PD-L1 mRNA expression in full thickness mouse skin (RT-qPCR)” value in data set [3] is listed as “inhibition”. Besides, in data set [4], the “UV-induced PD-L1 upregulation at the protein level (immunoblot)” value is reported as “significantly antagonized”; the “antagonistic effect on PD-L1 protein, pre- and post-UV application versus pre only” value was “more pronounced”. Moreover, in data set [5], the “SSL-induced PD-L1 mRNA expression” value is “blocked; also recorded: suppressed dose-dependently” and the “SSL-induced PD-L1 protein expression (immunoblot)” value is recorded as “blocked”. Also, the “UVB-induced AP-1 luciferase signal intensity” value in data set [6] was “significant inhibition”. Moreover, in data set [7], the “UV-induced expression of Il1β, Il6, Il10, Tnfα, Ptgs2, Tlr4 (RT-qPCR)” value was “strong downregulation”.
